≈ marks a conversion by molar mass, not a printed value.
Tests used:
Format in all cases: functional, cell-based
B16 = assay: Cytotoxicity against mouse B16 cells after 72 hrs by MTT assay; settings: B16, 72 h
CCRF-CEM = assay: Cytotoxicity against human CEM cells after 72 hrs by MTT assay
HCT-8 = assay: Cytotoxicity against human HCT8 cells after 72 hrs by MTT assay; settings: HCT-8, 72 h
HL-60 = assay: Cytotoxicity against human HL60 cells after 72 hrs by MTT assay; settings: HL-60, 72 h
MCF7 = assay: Cytotoxicity against human MCF7 cells after 72 hrs by MTT assay; settings: MCF7, 72 h

SMILES	IC50 (B16)	IC50 (CCRF-CEM)	IC50 (HCT-8)	IC50 (HL-60)	IC50 (MCF7)
O=C1C[C@@H](c2ccc(O)cc2)Oc2cc(O)ccc21 [LIQUIRTIGENIN]	5 µg/mL (≈ 19.5 µM)	> 25 µg/mL	19.5 µg/mL (≈ 76.1 µM)	22.5 µg/mL (≈ 87.8 µM)	> 25 µg/mL
COc1cccc2c1C(=O)c1c(O)c3c(c(O)c1C2=O)C[C@@](O)(C(=O)CO)C[C@@H]3O[C@H]1C[C@H](N)[C@H](O)[C@H](C)O1 [DOXORUBICIN]	–	–	–	–	0.2 µg/mL (≈ 0.368 µM)
COc1ccc2c(c1)OC1c3ccc(O)c(O)c3OCC21 (stereo unspecified) [VESTICARPAN]	2.7 µg/mL (≈ 9.43 µM)	7.3 µg/mL (≈ 25.5 µM)	12.4 µg/mL (≈ 43.3 µM)	6.9 µg/mL (≈ 24.1 µM)	10 µg/mL (≈ 34.9 µM)
COc1ccc2c(c1)OC1c3cc(OC)c(OC)cc3OCC21 (stereo unspecified)	2.9 µg/mL (≈ 9.23 µM)	0.6 µg/mL (≈ 1.91 µM)	0.6 µg/mL (≈ 1.91 µM)	0.1 µg/mL (≈ 0.318 µM)	0.7 µg/mL (≈ 2.23 µM)
COc1ccc2c(c1)O[C@H]1c3ccc(OC)cc3OC[C@@H]21 [HOMOPTEROCARPIN]	5.2 µg/mL (≈ 18.3 µM)	5.5 µg/mL (≈ 19.3 µM)	6.4 µg/mL (≈ 22.5 µM)	3.9 µg/mL (≈ 13.7 µM)	18.5 µg/mL (≈ 65.1 µM)

— ChEMBL document CHEMBL1158710, “Cytotoxic flavonoids from Platymiscium floribundum” (J Nat Prod, 2005)
